“And” between values parts separate entries of the source, which are not always exact repeats. Equal entries are not always repeated. Where two headings read alike, the source gives them in different places.

Data on six molecules can be found in publication PMC12145828 (The Journal of Biological Chemistry, 2025).

The target of data set [1] is T1, human DP receptors (Homo sapiens, UniProt Q13258).
T1 construct: expressed in transfected cells
T1 sequence (Q13258 1-359): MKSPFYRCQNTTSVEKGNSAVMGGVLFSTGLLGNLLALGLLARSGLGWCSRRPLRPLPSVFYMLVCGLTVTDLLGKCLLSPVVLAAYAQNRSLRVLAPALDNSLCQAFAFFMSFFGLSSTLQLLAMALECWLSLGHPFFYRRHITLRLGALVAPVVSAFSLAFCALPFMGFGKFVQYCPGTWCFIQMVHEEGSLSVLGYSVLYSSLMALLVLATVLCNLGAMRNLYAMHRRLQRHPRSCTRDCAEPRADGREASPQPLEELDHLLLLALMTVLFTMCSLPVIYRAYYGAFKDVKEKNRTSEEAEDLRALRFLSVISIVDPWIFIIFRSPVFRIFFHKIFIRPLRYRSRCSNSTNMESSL
Briefly: TCF/β-catenin-mediated luciferase reporter assay in HEK-DP cells. To be noted: for effect on DP receptor-mediated activation of TCF/β-catenin signaling / Emax (fold), β-catenin/TCF-mediated luciferase activity / EC50 / Emax: HEK-DP cells; for effect on DP receptor-mediated activation of TCF/β-catenin signaling: up to 100 nM; for τ (TCF transcriptional activity), operational efficacy / Kd: Black/Leff operational model, partial agonists; for Kd: read-out: KA (TCF transcriptional activity), apparent affinity; for Emax (fold), β-catenin/TCF-mediated luciferase activity / Emax: 16 h; for Emax (fold), β-catenin/TCF-mediated luciferase activity: vehicle-treated control as 1.0; for EC50: 16 h treatment; for Emax: read-out: Emax of TCF/β-catenin activity as % of the PGD2 value. It counts as cell-based. The protocol:
HEK-DP cells were cultured in 6-well plates and, prior to the experiments, medium was switched to Opti-MEM for 16 h with antibiotics, as stated previously. Cells were transiently transfected using HyliMax reagent (Dojindo) with 400 ng/well of either TOP flash or FOP flash reporter plasmids and 2 ng/well of pRL-CMV plasmid (Promega), as described previously ([20]). […] Cells were then lysed and assayed using a dual luciferase reporter assay system (Promega) according to the manufacturer's instructions with TECAN infinite M200 (TECAN). Data were normalized by calculating the ratios of firefly luciferase values to corresponding renilla luciferase scores and corrected for background activity by subtracting FOP flash scores from the corresponding TOP flash values, as described previously ([20]).
(§1) The equation "operational model-partial agonist" was performed using the results presented in Figure 2, as reported previously ([20]). The basal level was 0 (Fig. 2A; cAMP) or 1 (Fig. 2B, TCF), and Hill slopes were specified as 1. […] The total responses evoked by the precursor prostanoid and its metabolites were calculated using the formula below ([23]): Response=[A1]/KA1×Tau1+[A2]/KA2×Tau2/[A1]/KA1×(Tau1+1)+[A2]/KA2×(Tau2+1)+1×EffectMax

The target in data set [2] is T1, human DP receptors. Briefly: cAMP formation assay in HEK-DP cells. It counts as cell-based. Conditions: for effect on DP receptors in terms of cAMP accumulation: at least up to 100 nM; for τ (cAMP formation), operational efficacy / Kd / τ' (cAMP formation): Black/Leff operational model; for τ (cAMP formation), operational efficacy / Kd: partial agonists; for Kd: read-out: KA (cAMP formation), apparent affinity; for Emax: 60 min, normalized to 100 nM PGD2-stimulated cAMP as 100%; for EC50: 60 min treatment; for τ' (cAMP formation): full agonists, τ' = KA' x R. The protocol: HEK-DP cells were cultured in 6-well plates and, prior to the experiments, the medium was switched from DMEM to Opti-MEM (Thermo Fisher Scientific) containing 250 μg/ml geneticin, 200 μg/ml hygromycin B, and 100 μg/ml gentamicin for 16 h. […] Three hundred microliters of TE buffer (50 mM Tris–HCl, 4 mM EDTA [pH 7.5]) was added, and cells were scraped and transferred to microcentrifuge tubes. Samples were boiled for 8 min, placed on ice, and then centrifuged for 1 min at 16,000g. Between 5 and 25 μl of the supernatants representing approximately 10^4 cells was added to 50 μl of TE buffer containing [^3H]cAMP (PerkinElmer Life Science) and then to 100 μl of 0.06 mg/ml PKA (Sigma–Aldrich; #P5511). The mixture was vortexed and incubated on ice for 120 min. Samples were added to 100 μl of TE buffer containing 2% of bovine serum albumin and 26 mg/ml of powdered activated charcoal (Sigma–Aldrich; #C7606). After vortexing and centrifugation at 16,000g for 5 min, 200 μl of the supernatants were transferred to vials for liquid scintillation.
as §1
(cAMP levels reflect the balance of adenylyl cyclase and phosphodiesterase activity.)

For data set [3], the target named is T1, human DP receptors. The data set can be described thus: competitive whole-cell [^3H]PGD2 radioligand binding assay in HEK-DP cells. To be noted: for binding to DP receptors / competition with [^3H]PGD2: at least to a concentration of 100 nM (data not shown). The method, then: The medium of HEK-DP cells cultured in 10-cm dishes was switched from DMEM containing 10% fetal bovine serum to Opti-MEM at 37 °C for 16 h containing antibiotics, as stated previously. Cells were trypsinized and then resuspended at 1.0 x 10^6 cells/sample in 100 μl of ice-cold 10 mM HEPES buffer (pH 7.4) containing 1 mM EDTA and 10 mM MnCl2 (Sigma–Aldrich). […] Samples were incubated for 2 h at 4 °C, and then the assay was terminated by filtration through Whatman GF/C glass filters (Whatman). Filters were then washed three to five times with ice-cold HEPES buffer, and radioactivity was measured by liquid scintillation counting ([20]).

The conditions of data set [4]: cited from earlier work.
The test system of another data set is platelets. Further details: method as in PMID 17452035. To be noted: collagen-induced platelet aggregation; cited from earlier work.

With `CCCCC/C=C/C=C1/C(=O)C[C@H](O)[C@@H]1C/C=C\CCCC(=O)O` [15-d-PGD2, 15-deoxy-Δ^12,14-PGD2], the “effect on DP receptor-mediated activation of TCF/β-catenin signaling” value at human DP receptors [1] was “little effect”. Further, the “effect on DP receptors in terms of cAMP accumulation” value at human DP receptors [2] (HEK-DP cells) is “little effects”. For the same molecule, on human DP receptors [3], the “binding to DP receptors / competition with [^3H]PGD2” value was “could not bind to DP receptors”.

As to `CCCCC/C=C\C=C1\C(=O)C=C[C@@H]1C/C=C\CCCC(=O)O` [15-d-PGJ2, 15-deoxy-Δ^12,14-PGJ2], the “effect on DP receptor-mediated activation of TCF/β-catenin signaling” value at human DP receptors [1] is recorded as “little effect”. For the same molecule, on human DP receptors [2] (HEK-DP cells), the “effect on DP receptors in terms of cAMP accumulation” value was “little effects”. Moreover, the “binding to DP receptors / competition with [^3H]PGD2” value on human DP receptors [3] was “could not bind to DP receptors”.

As to `CCCCCC(=O)CC[C@H]1C(=O)C[C@H](O)[C@@H]1C/C=C\CCCC(=O)O` [DK-PGD2, 13,14-dihydro-15-keto PGD2], on human DP receptors [1], the “τ (TCF transcriptional activity), operational efficacy” value worked out at 0.21; the Kd turned out to be 18.9 nM; the “Emax (fold), β-catenin/TCF-mediated luciferase activity” value is reported as “about 1.28 fold”; the EC50 is 34.7 nM. The Emax on human DP receptors [1] was about 40%. Further, on human DP receptors [2], the “τ (cAMP formation), operational efficacy” value turned out to be 0.17 and the Kd came out at 15 nM. At human DP receptors [2] (HEK-DP cells), the Emax is about 14%; the EC50 was ~62.4 nM and 62.4 nM.

Take `CCCCC[C@H](O)/C=C/[C@H]1C(=O)C[C@H](O)[C@@H]1C/C=C\CCCC(=O)O` [PGD2, Prostaglandin D2]: the half-maximal effective concentration (EC50) on human DP receptors [1] is ~0.08 nM and 0.0892 nM; on human DP receptors [2] (HEK-DP cells) it was ~0.3 nM and 0.301 nM. The “τ' (cAMP formation)” value on human DP receptors [2] is listed as 11.48. At human DP receptors [2] (HEK-DP cells), this molecule gave an Emax of 100%. Further, the results for the half-life in blood in data set [4] (blood) and in data set [4] (printed as blood) were 0.9 min and 30 min, respectively. Further, the half-life in plasma in data set [4] (plasma) is 30 min. The IC50 at human DP receptors [3] was found to be 2.48 nM.

For `CCCCC[C@H](O)/C=C/[C@H]1C(=O)C=C[C@@H]1C/C=C\CCCC(=O)O` [PGJ2, prostaglandin J2], in the data set on platelets, the “potency of inhibiting platelet aggregation, times lower than that of PGD2” value is 13 times. Moreover, on human DP receptors [1], the EC50 was ~0.08 nM and 0.0758 nM. Also, the “τ' (cAMP formation)” value on human DP receptors [2] was 86.76. Moreover, the “time-dependent cAMP formation compared with PGD2, with IBMX pretreatment” value on human DP receptors [2] (HEK-DP cells, 0.3 nM ligand, 0.1 mg/ml IBMX for 25 min) was “significantly more cAMP from 5 to 60 min compared with PGD2”. The “time-dependent cAMP formation compared with PGD2, without IBMX pretreatment” value at human DP receptors [2] (HEK-DP cells, 0.3 nM ligand, no IBMX) is given as “significantly form more cAMP from 10 to 30 min compared with PGD2”. For the same molecule, on human DP receptors [2] (HEK-DP cells), the Emax amounted to 102 ± 20.2%; the EC50 was ~0.05 nM and 0.0513 nM. The molecule further gave an IC50 at human DP receptors [3] of 5.11 nM.

Regarding `CCCCCC(O)CC=C1C(=O)C=CC1CC=CCCCC(=O)O` (stereo not shown) [Δ^12-PGJ2], at human DP receptors [1], the “τ (TCF transcriptional activity), operational efficacy” value is recorded as 2.44; the Kd stood at 29.8 nM; the “Emax (fold), β-catenin/TCF-mediated luciferase activity” value was 2.21 fold; the EC50 was 8.96 nM. Also, the Emax at human DP receptors [1] was about 70%. At human DP receptors [2], the “τ (cAMP formation), operational efficacy” value is listed as 4.08 and the Kd came out at 117 nM. On human DP receptors [2] (HEK-DP cells), the Emax was about 67%; the EC50 is ~28.9 nM and 28.9 nM.

The term EC50 denotes the concentration at which the effect is half-maximal. Higher therefore signals lower potency in that assay. A word on the IC50: it is the concentration needed to halve the response being measured. High values mean weaker potency, low ones greater potency.
